Test [1] deals with T1, Adrenergic receptor alpha-1 (Rattus norvegicus, UniProt P15823+P23944+P43140).
T1 sequence (P15823 whole entry): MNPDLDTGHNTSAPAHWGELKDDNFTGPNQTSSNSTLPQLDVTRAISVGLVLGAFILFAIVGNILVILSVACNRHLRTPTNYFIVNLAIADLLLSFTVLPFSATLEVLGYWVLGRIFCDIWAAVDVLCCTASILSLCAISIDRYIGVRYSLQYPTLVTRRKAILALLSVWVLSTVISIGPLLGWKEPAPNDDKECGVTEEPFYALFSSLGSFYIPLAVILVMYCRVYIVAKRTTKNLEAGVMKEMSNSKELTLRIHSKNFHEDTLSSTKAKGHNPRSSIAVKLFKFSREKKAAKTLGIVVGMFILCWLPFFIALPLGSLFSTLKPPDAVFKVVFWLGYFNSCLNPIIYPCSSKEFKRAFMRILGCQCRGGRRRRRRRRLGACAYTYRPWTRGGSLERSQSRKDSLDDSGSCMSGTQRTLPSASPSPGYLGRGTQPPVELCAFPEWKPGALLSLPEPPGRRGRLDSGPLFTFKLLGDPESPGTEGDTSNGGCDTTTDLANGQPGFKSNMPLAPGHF
T1 sequence (P23944 whole entry): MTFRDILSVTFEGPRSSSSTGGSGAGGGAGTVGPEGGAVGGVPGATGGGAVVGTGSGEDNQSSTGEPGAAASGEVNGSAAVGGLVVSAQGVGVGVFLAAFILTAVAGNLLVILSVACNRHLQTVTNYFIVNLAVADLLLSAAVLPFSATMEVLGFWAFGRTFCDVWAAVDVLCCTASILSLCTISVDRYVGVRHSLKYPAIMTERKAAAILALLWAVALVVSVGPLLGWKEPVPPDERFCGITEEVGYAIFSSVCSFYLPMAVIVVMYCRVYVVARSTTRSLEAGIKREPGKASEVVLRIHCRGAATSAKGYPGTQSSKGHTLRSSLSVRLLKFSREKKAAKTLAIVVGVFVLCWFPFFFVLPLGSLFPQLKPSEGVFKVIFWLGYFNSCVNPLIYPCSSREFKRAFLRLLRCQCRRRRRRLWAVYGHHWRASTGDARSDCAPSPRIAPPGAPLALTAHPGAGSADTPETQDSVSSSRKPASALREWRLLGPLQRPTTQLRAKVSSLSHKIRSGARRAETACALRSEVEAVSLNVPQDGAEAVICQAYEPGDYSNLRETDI
T1 sequence (P43140 whole entry): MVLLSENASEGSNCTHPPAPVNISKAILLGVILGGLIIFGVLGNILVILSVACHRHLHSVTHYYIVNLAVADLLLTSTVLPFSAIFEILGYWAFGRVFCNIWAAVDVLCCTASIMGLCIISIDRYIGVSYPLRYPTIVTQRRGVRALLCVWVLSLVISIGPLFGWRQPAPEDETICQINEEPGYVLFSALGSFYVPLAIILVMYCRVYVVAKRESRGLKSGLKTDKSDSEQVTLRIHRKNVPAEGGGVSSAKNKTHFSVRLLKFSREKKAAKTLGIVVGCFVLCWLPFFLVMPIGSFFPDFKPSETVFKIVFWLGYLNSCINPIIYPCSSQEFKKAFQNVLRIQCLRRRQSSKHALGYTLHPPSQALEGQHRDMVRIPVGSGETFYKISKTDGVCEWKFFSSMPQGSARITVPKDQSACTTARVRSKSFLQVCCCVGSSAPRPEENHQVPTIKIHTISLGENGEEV
The experiment in a line: Displacement of [3H]prazosine from Alpha-1 adrenergic receptor in Sprague-Dawley rat brain P2 membranes after […] by liquid scintillation counting. In general terms: Displacement assays read how much labelled ligand stays bound in the presence of the test substance.

Test [2] deals with Rattus norvegicus. The experiment in a line: Antihypertensive activity in anesthetized Wistar rat assessed as change in mean arterial blood pressure at 0.1 mg/kg, iv administered as bolus dose after 2 mins. In kind it is functional.
For test [3], the system named is Rattus norvegicus. Briefly: Antihypertensive activity in anesthetized Wistar rat assessed as change in heart rate at 0.1 mg/kg, iv administered as bolus dose after 2 mins (reference value: -0.6 […]). In kind it is functional.
The subject of test [4] is Rattus norvegicus. The experiment in a line: Antihypertensive activity in anesthetized Wistar rat assessed as change in heart rate at 0.1 mg/kg, iv administered as bolus dose after 5 mins (reference value: -2.9 […]). In kind it is functional.

Broadly, the Ki is a dissociation constant, usually derived from enzyme kinetics or from competition with a known ligand. Read a low Ki as a stronger hold on the target.

In test [1], `Cl.c1ccc2c(c1)ccn2CC1=NCCN1` showed a Ki of 61.4 nM. The Activity is 34.1 mmHg in the test with Rattus norvegicus [2], -138.4 bpm in the test with Rattus norvegicus [3] and -100.1 bpm with Rattus norvegicus [4].

Take `Br.Cc1cccc2ccn(CC3=NCCN3)c12`: the Ki in test [1] turned out to be 24.97 nM. Moreover, the figures for the Activity in the test on Rattus norvegicus [2], in the test with Rattus norvegicus [3] and with Rattus norvegicus [4] were 13.4 mmHg, -61.3 bpm and -83.3 bpm, respectively.

`Cl.Clc1cccc2ccn(CC3=NCCN3)c12` returned a Ki in test [1] of 6.82 nM. Besides, the Activity is listed as 15.2 mmHg in the test on Rattus norvegicus [2], -89.6 bpm in the test with Rattus norvegicus [3] and -132 bpm in the test with Rattus norvegicus [4].

The values above are taken from ChEMBL document CHEMBL3797164, “Transfer of SAR information from hypotensive indazole to indole derivatives acting at α-adrenergic receptors: In vitro and in vivo studies” (Eur J Med Chem, 2016).
